Test results as given in ChEMBL document CHEMBL4610120, “New Broad-Spectrum Antibiotics Containing a Pyrrolobenzodiazepine Ring with Activity against Multidrug-Resistant Gram-Negative Bacteria” (J Med Chem, 2020).
Values after ≈ are worked out from the molar mass of the structure shown.

How the values were obtained:
Escherichia coli = experiment: Antimicrobial activity against multidrug-resistant Escherichia coli NCTC 12923 assessed as mutation frequency at 4 times MIC measured after 48 hrs; format: functional
Acinetobacter baumannii [1] = experiment: Antimicrobial activity against Acinetobacter baumannii ATCC 17978 assessed as mutation frequency at 4 times MIC measured after 48 hrs; format: functional
[2] = target: T1, Protein RecA (Escherichia coli K-12) (UniProt P0A7G6); experiment: Induction of Escherichia coli K12 MG1655 recA promotor measured at 30 mins interval for 20 hrs by fluorescence assay relative to control; conditions: Escherichia coli str. K-12 substr. MG1655
T1 sequence (whole entry): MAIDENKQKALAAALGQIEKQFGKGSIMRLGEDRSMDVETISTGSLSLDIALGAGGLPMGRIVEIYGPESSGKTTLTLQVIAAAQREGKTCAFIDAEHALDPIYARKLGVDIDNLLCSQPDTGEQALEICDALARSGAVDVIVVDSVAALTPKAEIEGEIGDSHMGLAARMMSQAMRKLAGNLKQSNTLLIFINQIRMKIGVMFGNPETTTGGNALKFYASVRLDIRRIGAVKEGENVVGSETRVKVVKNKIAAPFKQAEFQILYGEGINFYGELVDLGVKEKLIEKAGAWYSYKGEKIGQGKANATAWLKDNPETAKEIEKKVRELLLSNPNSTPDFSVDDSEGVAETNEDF

[3] = target: T2, LexA repressor (Escherichia coli) (UniProt P0A7C2); experiment: Induction of Escherichia coli K12 MG1655 lexA promotor measured at 30 mins interval for 20 hrs by fluorescence assay relative to control; conditions: Escherichia coli str. K-12 substr. MG1655
T2 sequence (whole entry): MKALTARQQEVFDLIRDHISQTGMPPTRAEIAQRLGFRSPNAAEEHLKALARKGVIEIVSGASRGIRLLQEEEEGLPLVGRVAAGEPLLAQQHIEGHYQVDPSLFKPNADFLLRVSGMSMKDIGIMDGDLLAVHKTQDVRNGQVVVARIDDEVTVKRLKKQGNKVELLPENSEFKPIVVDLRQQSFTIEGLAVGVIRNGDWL

[4] = target: T3, DNA repair protein RecN (Escherichia coli) (UniProt P05824); experiment: Induction of Escherichia coli K12 MG1655 recN promotor measured at 30 mins interval for 20 hrs by fluorescence assay relative to control; conditions: Escherichia coli str. K-12 substr. MG1655
T3 sequence (whole entry): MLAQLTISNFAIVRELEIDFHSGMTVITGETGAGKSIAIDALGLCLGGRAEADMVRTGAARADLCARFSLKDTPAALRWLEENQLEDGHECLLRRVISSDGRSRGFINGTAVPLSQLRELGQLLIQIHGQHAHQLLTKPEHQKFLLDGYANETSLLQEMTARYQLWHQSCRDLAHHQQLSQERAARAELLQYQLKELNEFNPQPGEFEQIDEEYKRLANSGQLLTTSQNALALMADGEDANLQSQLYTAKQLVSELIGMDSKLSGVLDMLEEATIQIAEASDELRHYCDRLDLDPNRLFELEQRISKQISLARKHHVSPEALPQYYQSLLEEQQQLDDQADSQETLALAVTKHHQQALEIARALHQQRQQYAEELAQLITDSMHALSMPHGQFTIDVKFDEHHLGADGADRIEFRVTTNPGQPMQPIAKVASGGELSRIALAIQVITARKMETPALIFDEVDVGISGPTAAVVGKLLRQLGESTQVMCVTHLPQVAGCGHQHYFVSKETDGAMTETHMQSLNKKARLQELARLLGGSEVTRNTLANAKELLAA

[5] = target: T4, Cell division inhibitor SulA (Escherichia coli K-12) (UniProt P0AFZ5); experiment: Induction of Escherichia coli K12 MG1655 sulA promotor measured at 30 mins interval for 20 hrs by fluorescence assay relative to control; conditions: Escherichia coli str. K-12 substr. MG1655
T4 sequence (whole entry): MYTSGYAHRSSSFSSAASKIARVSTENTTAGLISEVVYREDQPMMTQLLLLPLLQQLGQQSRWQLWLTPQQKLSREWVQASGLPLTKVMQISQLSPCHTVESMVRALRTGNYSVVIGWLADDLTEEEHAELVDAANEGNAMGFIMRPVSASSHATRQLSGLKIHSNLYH

Klebsiella pneumoniae [6] = experiment: Antimicrobial activity against Klebsiella pneumoniae M6 assessed as mutation frequency at 4 times MIC measured after 48 hrs; format: functional
Klebsiella pneumoniae [7] = experiment: Antibacterial activity against multidrug-resistant Klebsiella pneumoniae NCTC 13368 measured after 10 passages by microdilution broth method; format: functional
Acinetobacter baumannii [8] = experiment: Antimicrobial activity against Acinetobacter baumannii ATCC 17978 by microdilution broth method; format: functional
Acinetobacter baumannii [9] = experiment: Antimicrobial activity against multidrug-resistant Acinetobacter baumannii AYE by microdilution broth method; format: functional
Klebsiella pneumoniae [10] = experiment: Antimicrobial activity against Klebsiella pneumoniae M6 by microdilution broth method; format: functional
Klebsiella pneumoniae [11] = experiment: Antimicrobial activity against multidrug-resistant Klebsiella pneumoniae NCTC 13368 by microdilution broth method; format: functional
Pseudomonas aeruginosa [12] = experiment: Antimicrobial activity against Pseudomonas aeruginosa PAO1 by microdilution broth method; format: functional
Pseudomonas aeruginosa [13] = experiment: Antimicrobial activity against multidrug-resistant Pseudomonas aeruginosa NCTC 13437 by microdilution broth method; format: functional
Enterococcus faecium = experiment: Antibacterial activity against vancomycin resistant Enterococcus faecium NCTC 12204 by microdilution broth method; format: functional
Enterococcus faecalis [14] = experiment: Antibacterial activity against vancomycin resistant Enterococcus faecalis NCTC 12201 by microdilution broth method; format: functional
Enterococcus faecalis [15] = experiment: Antibacterial activity against vancomycin sensitive Enterococcus faecalis NCTC 775 by microdilution broth method; format: functional
Staphylococcus aureus [16] = experiment: Antibacterial activity against methicillin resistant Staphylococcus aureus NCTC 13616 by microdilution broth method; format: functional
Staphylococcus aureus [17] = experiment: Antibacterial activity against methicillin resistant Staphylococcus aureus NCTC 13277 by microdilution broth method; format: functional
Staphylococcus aureus [18] = experiment: Antibacterial activity against methicillin sensitive Staphylococcus aureus NCTC 6571 by microdilution broth method; format: functional
DNA [19] = experiment: Stabilization of 5'-FAM-TAT-ATA-TAG-ATA-TTT-TTT-TAT-CTA-TAT-ATA-3'-TAMRA DNA (unknown origin) assessed as reduction in change in melting temperature at 1:1 to 5:1 ligand to DNA ratio measured after 3 hrs by FRET-based assay relative to control; format: ADME, nucleic-acid assay
DNA [20] = experiment: Stabilization of 5'-FAM-TAT-AGA-TAT-AGA-TAT-TTT-ATA-TCT-ATA-TCT-ATA-3'-TAMRA DNA (unknown origin) assessed as reduction in change in melting temperature at 1:1 to 5:1 ligand to DNA ratio measured after 3 hrs by FRET-based assay relative to control; format: ADME, nucleic-acid assay
[21] = Cytotoxicity against human WI38 cells assessed as cell viability at 20 uM measured after 24 hrs by MTT assay relative to control; format: cell-based, WI-38; conditions: read-out: Activity
[22] = Selectivity ratio of cytotoxicity against human WI38 cells to MIC for Acinetobacter baumannii ATCC 17978; format: toxicity, cell-based
[23] = Selectivity ratio of cytotoxicity against human WI38 cells to MIC for multidrug-resistant Acinetobacter baumannii AYE; format: toxicity, cell-based
[24] = Selectivity ratio of cytotoxicity against human WI38 cells to MIC for Klebsiella pneumoniae M6; format: toxicity, cell-based
[25] = Selectivity ratio of cytotoxicity against human WI38 cells to MIC for multidrug-resistant Klebsiella pneumoniae NCTC 13368; format: toxicity, cell-based
[26] = Selectivity ratio of cytotoxicity against human WI38 cells to MIC for Pseudomonas aeruginosa PAO1; format: toxicity, cell-based
[27] = Selectivity ratio of cytotoxicity against human WI38 cells to MIC for multidrug-resistant Pseudomonas aeruginosa NCTC 13437; format: toxicity, cell-based
[28] = Selectivity ratio of cytotoxicity against human WI38 cells to MIC for vancomycin resistant Enterococcus faecium NCTC 12204; format: toxicity, cell-based
[29] = Selectivity ratio of cytotoxicity against human WI38 cells to MIC for vancomycin resistant Enterococcus faecalis NCTC 12201; format: toxicity, cell-based
[30] = Selectivity ratio of cytotoxicity against human WI38 cells to MIC for vancomycin sensitive Enterococcus faecalis NCTC 775; format: toxicity, cell-based
[31] = Selectivity ratio of cytotoxicity against human WI38 cells to MIC for methicillin resistant Staphylococcus aureus NCTC 13616; format: toxicity, cell-based
[32] = Selectivity ratio of cytotoxicity against human WI38 cells to MIC for methicillin resistant Staphylococcus aureus NCTC 13277; format: toxicity, cell-based
[33] = Selectivity ratio of cytotoxicity against human WI38 cells to MIC for methicillin sensitive Staphylococcus aureus NCTC 6571; format: toxicity, cell-based

| Molecule | MIC (Acinetobacter baumannii [8]) | MIC (Acinetobacter baumannii [9]) | MIC (Klebsiella pneumoniae [10]) | MIC (Klebsiella pneumoniae [11]) | MIC (Pseudomonas aeruginosa [12]) | MIC (Pseudomonas aeruginosa [13]) | MIC (Enterococcus faecium) | MIC (Enterococcus faecalis [14]) | MIC (Enterococcus faecalis [15]) | MIC (Staphylococcus aureus [16]) | MIC (Staphylococcus aureus [17]) | MIC (Staphylococcus aureus [18]) | fold change (FC) (DNA [19]) | fold change (FC) (DNA [20]) | viability at 24 h, 20 µM [21] | selectivity ratio [22] | selectivity ratio [23] | selectivity ratio [24] | selectivity ratio [25] | selectivity ratio [26] | also measured |
| --- | --- | --- | --- | --- | --- | --- | --- | --- | --- | --- | --- | --- | --- | --- | --- | --- | --- | --- | --- | --- | --- |
| O=C(O)c1cn(C2CC2)c2cc(N3CCNCC3)c(F)cc2c1=O [CIPROFLOXACIN] |  |  |  |  |  |  |  |  |  |  |  |  |  |  |  |  |  |  |  |  | Activity (Escherichia coli): 4.4 ×10⁻⁷ No_unit; Activity (Acinetobacter baumannii [1]): 8.4 ×10⁻⁷ No_unit; fold change (FC) [2]: 20 to 35; fold change (FC) [3]: 5 to 13; fold change (FC) [4]: 14 to 32; fold change (FC) [5]: 17 to 41; Activity (Klebsiella pneumoniae [6]): 8.9 ×10⁻⁷ No_unit |
| COLISTIN |  |  |  |  |  |  |  |  |  |  |  |  |  |  |  |  |  |  |  |  | MIC (Klebsiella pneumoniae [7]): 32 µg/mL |
| COc1cc2c(cc1OCCCC(=O)Nc1cc(C(=O)Nc3ccc4oc(C(=O)N(C)C)cc4c3)n(C)c1)N=C[C@@H]1CCCN1C2=O | 4 µg/mL (≈ 6.24 µM) | 4 µg/mL (≈ 6.24 µM) | 0.5 µg/mL (≈ 0.78 µM) | 16 µg/mL (≈ 25 µM) | 128 µg/mL (≈ 200 µM) | 64 µg/mL (≈ 99.9 µM) | ≤ 0.125 µg/mL | 0.5 µg/mL (≈ 0.78 µM) | ≤ 0.125 µg/mL | ≤ 0.125 µg/mL | ≤ 0.125 µg/mL | ≤ 0.125 µg/mL | 3 to 4 | 3 to 4 | > 85% | 10 | 10 | 10 | 10 | 10 | selectivity ratio [27]: 10; selectivity ratio [28]: 100; selectivity ratio [29]: 100; selectivity ratio [30]: 100; selectivity ratio [31]: 100; selectivity ratio [32]: 100; selectivity ratio [33]: 100 |
| CCN(CC)C(=O)c1cc2cc(NC(=O)c3cc(NC(=O)CCCOc4cc5c(cc4OC)C(=O)N4CCC[C@H]4C=N5)cn3C)ccc2o1 | 4 µg/mL (≈ 5.98 µM) | 4 µg/mL (≈ 5.98 µM) | 8 µg/mL (≈ 12 µM) | 64 µg/mL (≈ 95.7 µM) | 128 µg/mL (≈ 191 µM) | 32 µg/mL (≈ 47.9 µM) | ≤ 0.125 µg/mL | ≤ 0.125 µg/mL | 0.25 µg/mL (≈ 0.374 µM) | 0.25 µg/mL (≈ 0.374 µM) | 0.5 µg/mL (≈ 0.748 µM) | ≤ 0.125 µg/mL | 3 to 4 | 3 to 4 | > 85% | 10 | 10 | 10 | 10 | 10 | selectivity ratio [27]: 10; selectivity ratio [28]: 100; selectivity ratio [29]: 100; selectivity ratio [30]: 100; selectivity ratio [31]: 100; selectivity ratio [32]: 100; selectivity ratio [33]: 100 |
| COc1cc2c(cc1OCCCC(=O)Nc1cc(C(=O)Nc3ccc(-c4cc(C(=O)N5CCCCC5)n(C)c4)cc3)n(C)c1)N=C[C@@H]1CCCN1C2=O | 2 µg/mL (≈ 2.78 µM) | 2 µg/mL (≈ 2.78 µM) | 16 µg/mL (≈ 22.2 µM) | > 128 µg/mL | > 128 µg/mL | > 128 µg/mL | ≤ 0.03 µg/mL | ≤ 0.03 µg/mL | 0.125 µg/mL (≈ 0.174 µM) | 0.06 µg/mL (≈ 0.0834 µM) | 0.125 µg/mL (≈ 0.174 µM) | ≤ 0.03 µg/mL | 3 to 4 | 3 to 4 | > 85% | 10 | 10 | 10 | 10 | 10 | selectivity ratio [27]: 10; selectivity ratio [28]: 100; selectivity ratio [29]: 100; selectivity ratio [30]: 100; selectivity ratio [31]: 100; selectivity ratio [32]: 100; selectivity ratio [33]: 100 |
